From article PMC4723341, “Ribonuclease H/DNA Polymerase HIV-1 Reverse Transcriptase Dual Inhibitor: Mechanistic Studies on the Allosteric Mode of Action of Isatin-Based Compound RMNC6” (PLoS ONE, 2016)

How the values were obtained:
[1] = test system: HIV-1 RT-associated RNase H activity, V106A RT; test: RNase H activity assay, V106A RT; assay type: biochemical, HIV-1 group M subtype B; details: V106A RT
Procedure: HIV RT-associated RNase H activity was measured as described in 100 μL reaction volume containing 50 mM Tris-HCl buffer pH 7.8, 6 mM MgCl2, 1 mM dithiothreitol (DTT), 80 mM KCl, 0.25 μM hybrid RNA/DNA 5'-GAUCUGAGCCUGGGAGCU-Fluorescin-3' (HPLC, dry, QC: Mass Check) (available from Metabion) 5'-Dabcyl-AGCTCCCAGGCTCAGATC-3'(HPLC, dry, QC: Mass Check), increasing concentrations of inhibitors, whose dilution were made in water, and different amount of enzymes according to a linear range of dose-response curve: 20 ng of WT RT; 60 ng K103N RT; 37.5 ng V106A RT; 75 ng V108A RT; 5 ng Y181C RT; 50 ng Y188A RT; 30 ng Y188L RT; 100 ng E224A RT; 37.5 ng P225A RT; 20 ng P226A RT; 18 ng F227A RT; 30 ng L228A RT; 30 ng W229A RT; 10 ng M230A RT; 30 ng G231A RT; 62.5 ng N474A RT; 1 μg Y501A RT; 100 ng A502F RT; 37.5 ng A508V RT; 38 ng HIV-1 group O RT. The reaction mixture was incubated for 1 h at 37°C, stopped by addition of EDTA and products were measured with a multilabel counter plate reader Victor 3 (Perkin Elmer model 1420–051) equipped with filters for 490/528 nm (excitation/emission wavelength)

[2] = biological target: T1, HIV-1 RT-associated RDDP activity, wt RT (Human immunodeficiency virus type 1 group M subtype B, UniProt P04585); test: biochemical; parameters: species or system HIV-1 group M subtype B
T1 construct: The 1:1 ration between the p66/p51 subunits was also verified; made in house; host or cells: E. coli M15

[3] = biological target: T2, HIV-1 RT-associated RDDP activity, K103N RT (Human immunodeficiency virus type 1 group M subtype B, UniProt P04585, K690N); test: RDDP activity assay, K103N RT; assay type: biochemical, HIV-1 group M subtype B
T2 construct: The 1:1 ration between the p66/p51 subunits was also verified; made in house; host or cells: E. coli M15

[4] = biological target: HIV-1 RT-associated RDDP activity, HIV-1 group O RT (Human immunodeficiency virus type 1 group O, UniProt Q79666); test: RDDP activity assay, HIV-1 group O RT; assay type: biochemical; details: read-out: IC50 RDDP
Text: Recombinant HIV-1 group O RT was expressed and purified as previously described. It was obtained as a heterodimer composed of subunits of 66 and 51 kDa, with a polyhistidine tag at the C-terminus of p66. For this purpose, the RT p66 subunit encoded within a p66RTB expression vector was co-expressed with the HIV-1 protease in E. coli XL-1 Blue, and the obtained heterodimers were then purified by ionic exchange followed by chromatography on Ni2+-nitriloacetic acid agarose. The enzyme was quantified by active site titration before biochemical studies.
RNA-dependent DNA polymerase (RDDP) activity was measured as described in 25 μL volume containing 60 mM Tris-HCl buffer pH 8.1, 8 mM MgCl2, 60 mM KCl, 13 mM DTT, 2.5 μM poly(A)-oligo(dT), 100 μM dTTP, increasing concentrations of inhibitors, whose dilution were made in water, and different amounts of enzymes according to a linear range of dose-response curve: 6 ng wt RT; 30 ng K103N RT; 12 ng V106ART; 19 ng V108A RT; 1.51.5 ng Y181C RT; 45 ng Y188A RT; 15 ng Y188L RT; 30 ng E224A RT; 15 ng P225A RT; 18 ng P226A RT; 23 ng F227A RT; 15 ng L228A RT; 30 ng W229A RT; 30 ng M230A RT; 15 ng G231A RT; 15 ng N474A RT; 15 ng Y501A RT; 15 ng A502F RT; 19 ng A508V RT; 38 ng HIV-1 group O RT. After enzyme addition, the reaction mixture was incubated for 30 min at 37°C and the stopped by addition of EDTA. […]

[5] = biological target: T3, HIV-1 RT-associated RDDP activity, Y188A RT (Human immunodeficiency virus type 1 group M subtype B, UniProt P04585, Y775A); test: biochemical; parameters: species or system HIV-1 group M subtype B
T3 construct: The 1:1 ration between the p66/p51 subunits was also verified; made in house; host or cells: E. coli M15

[6] = test system: HIV-1 RT-associated RDDP activity, Y188A RT; test: biochemical; parameters: species or system HIV-1 group M subtype B; details: Y188A RT
[7] = biological target: T4, HIV-1 RT-associated RDDP activity, W229A RT (Human immunodeficiency virus type 1 group M subtype B, UniProt P04585, W816A); test: biochemical; parameters: species or system HIV-1 group M subtype B
T4 construct: The 1:1 ration between the p66/p51 subunits was also verified; made in house; host or cells: E. coli M15

[8] = biological target: T5, HIV-1 RT-associated RDDP activity, G231A RT (Human immunodeficiency virus type 1 group M subtype B, UniProt P04585, G818A); test: biochemical; parameters: species or system HIV-1 group M subtype B
T5 construct: The 1:1 ration between the p66/p51 subunits was also verified; made in house; host or cells: E. coli M15

[9] = biological target: T6, HIV-1 RT-associated RDDP activity, A502F RT (Human immunodeficiency virus type 1 group M subtype B, UniProt P04585, A1089F); test: biochemical; parameters: species or system HIV-1 group M subtype B
T6 construct: The 1:1 ration between the p66/p51 subunits was also verified; made in house; host or cells: E. coli M15

[10] = biological target: T7, HIV-1 RT RNA-dependent DNA polymerase activity (Human immunodeficiency virus type 1 group M subtype B, UniProt P04585); test: Yonetani-Theorell analysis of RMNC6 and EFV on RDDP function; assay type: biochemical
T7 construct: The 1:1 ration between the p66/p51 subunits was also verified; made in house; host or cells: E. coli M15
Procedure: RNA-dependent DNA polymerase (RDDP) activity was measured as described in 25 μL volume containing 60 mM Tris-HCl buffer pH 8.1, 8 mM MgCl2, 60 mM KCl, 13 mM DTT, 2.5 μM poly(A)-oligo(dT), 100 μM dTTP, increasing concentrations of inhibitors, whose dilution were made in water, and different amounts of enzymes according to a linear range of dose-response curve: 6 ng wt RT; 30 ng K103N RT; 12 ng V106ART; 19 ng V108A RT; 1.51.5 ng Y181C RT; 45 ng Y188A RT; 15 ng Y188L RT; 30 ng E224A RT; 15 ng P225A RT; 18 ng P226A RT; 23 ng F227A RT; 15 ng L228A RT; 30 ng W229A RT; 30 ng M230A RT; 15 ng G231A RT; 15 ng N474A RT; 15 ng Y501A RT; 15 ng A502F RT; 19 ng A508V RT; 38 ng HIV-1 group O RT. After enzyme addition, the reaction mixture was incubated for 30 min at 37°C and the stopped by addition of EDTA. Reaction products were detected by picogreen addition and measured with a multilabel counter plate reader Victor 3 (Perkin Elmer model 1420–051) equipped with filters for 502/523 nm (excitation/emission wavelength). The Yonetani-Theorell analysis was performed as described previously.

[11] = UV spectra in the absence and presence of magnesium (chelating potential); assay type: physicochemical; details: in the presence of 6 mM MgCl2
Text: Since the mode of action of previously identified dual RT inhibitors was not determined, we decided to investigate the mechanism of RT inhibition by RMNC6 in comparison with available RNase H inhibitors and NNRTIs. […] RNase H inhibitors such as vynologous ureas (VUs) are known to destabilize the RT heterodimer by binding to an allosteric pocket in the RNase H domain at the interface between p66 and p51 subunits.

CC(C)c1ccc(O)c(=O)c(O)c1 [BTP, β-thujaplicinol, reference compound]
Fold of increase of RNase H IC50 with respect to wt RT [1]: 0.8

N#Cc1ccc(-c2csc(NN=C3C(=O)Nc4ccccc43)n2)cc1 [RMNC6, (Z)-4-(2-(2-(2-oxoindolin-3-ylidene)hydrazinyl)thiazol-4-yl)benzonitrile]
IC50 [2]: 9.8 ± 1.4 µM
IC50 [3]: 13.6 ± 1 µM
IC50 [4]: 20.1 ± 7.4 µM
IC50 [5]: 20.9 ± 4 µM
Fold of increase of RDDP IC50 with respect to wt RT [6]: 2.1
IC50 [7]: 15.4 ± 2.8 µM
Fold of increase of RDDP IC50 with respect to wt RT ([7]; W229A RT): 1.6
IC50 [8]: 10.8 ± 2.4 µM
Fold of increase of RDDP IC50 with respect to wt RT ([8]; G231A RT): 1.1
IC50 [9]: 17.1 ± 2.1 µM
Fold of increase of RDDP IC50 with respect to wt RT ([9]; A502F RT): 1.8
Mutual exclusivity of inhibition (Yonetani-Theorell, words) ([10]; RMNC6 combined with EFV (4, 8, 16 nM) on RDDP function): not mutually exclusive
Interaction constant α (Yonetani-Theorell) ([10]; combined effects of RMNC6 and EFV on RDDP function): 1.2
Shift of maximum of absorbance (UV spectra) [11]: did not shift
